The subject of assay [1] is ENaC β-subunit overexpressing transgenic mice. The settings on record: administration to the lungs of the mice for 14 days after birth; cited from earlier work.
The test system of assay [2] is normal subjects. The note with it: treatment of normal subjects; cited from earlier work.
The target of assay [3] is T1, Sodium Channel ENaC (Homo sapiens, UniProt P37088+P51168+P51170).
T1 construct: Human primary bronchial epithelial cells differentiated at air-liquid interface (ALI); host or cells: Human primary bronchial epithelial cells differentiated at air-liquid interface
T1 sequence (P37088 1-669): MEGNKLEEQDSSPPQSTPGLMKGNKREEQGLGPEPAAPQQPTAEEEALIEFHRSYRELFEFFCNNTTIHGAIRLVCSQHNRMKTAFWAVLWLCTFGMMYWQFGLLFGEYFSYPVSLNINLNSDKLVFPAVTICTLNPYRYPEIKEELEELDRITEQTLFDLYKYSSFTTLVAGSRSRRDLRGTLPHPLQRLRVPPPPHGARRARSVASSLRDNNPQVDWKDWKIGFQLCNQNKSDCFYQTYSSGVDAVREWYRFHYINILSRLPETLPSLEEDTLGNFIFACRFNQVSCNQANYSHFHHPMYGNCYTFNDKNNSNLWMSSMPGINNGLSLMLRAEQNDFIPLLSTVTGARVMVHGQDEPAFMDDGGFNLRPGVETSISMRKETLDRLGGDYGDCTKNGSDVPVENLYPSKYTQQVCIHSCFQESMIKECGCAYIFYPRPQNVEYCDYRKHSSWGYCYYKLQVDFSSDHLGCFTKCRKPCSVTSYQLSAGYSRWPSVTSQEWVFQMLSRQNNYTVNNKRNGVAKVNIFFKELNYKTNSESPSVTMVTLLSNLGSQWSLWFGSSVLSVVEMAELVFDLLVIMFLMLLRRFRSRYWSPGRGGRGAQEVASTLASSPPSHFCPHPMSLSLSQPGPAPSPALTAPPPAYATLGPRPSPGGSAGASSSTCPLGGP
T1 sequence (P51168 1-640): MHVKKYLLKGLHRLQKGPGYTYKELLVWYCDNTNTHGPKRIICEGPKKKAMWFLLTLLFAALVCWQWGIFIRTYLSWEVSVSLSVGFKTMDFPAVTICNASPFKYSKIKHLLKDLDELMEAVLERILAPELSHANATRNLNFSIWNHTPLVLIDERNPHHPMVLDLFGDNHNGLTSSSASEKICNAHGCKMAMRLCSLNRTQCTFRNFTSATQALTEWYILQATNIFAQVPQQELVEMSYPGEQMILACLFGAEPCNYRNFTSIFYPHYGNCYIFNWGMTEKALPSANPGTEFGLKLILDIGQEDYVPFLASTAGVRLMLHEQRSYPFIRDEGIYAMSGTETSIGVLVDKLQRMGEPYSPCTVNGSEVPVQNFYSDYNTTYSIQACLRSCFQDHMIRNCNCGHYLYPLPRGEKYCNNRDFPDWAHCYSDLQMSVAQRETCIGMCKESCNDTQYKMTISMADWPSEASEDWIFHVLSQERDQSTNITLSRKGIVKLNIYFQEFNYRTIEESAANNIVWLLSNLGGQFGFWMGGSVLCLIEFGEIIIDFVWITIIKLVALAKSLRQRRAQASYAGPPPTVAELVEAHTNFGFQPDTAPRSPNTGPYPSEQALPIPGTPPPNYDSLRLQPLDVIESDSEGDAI
T1 sequence (P51170 1-649): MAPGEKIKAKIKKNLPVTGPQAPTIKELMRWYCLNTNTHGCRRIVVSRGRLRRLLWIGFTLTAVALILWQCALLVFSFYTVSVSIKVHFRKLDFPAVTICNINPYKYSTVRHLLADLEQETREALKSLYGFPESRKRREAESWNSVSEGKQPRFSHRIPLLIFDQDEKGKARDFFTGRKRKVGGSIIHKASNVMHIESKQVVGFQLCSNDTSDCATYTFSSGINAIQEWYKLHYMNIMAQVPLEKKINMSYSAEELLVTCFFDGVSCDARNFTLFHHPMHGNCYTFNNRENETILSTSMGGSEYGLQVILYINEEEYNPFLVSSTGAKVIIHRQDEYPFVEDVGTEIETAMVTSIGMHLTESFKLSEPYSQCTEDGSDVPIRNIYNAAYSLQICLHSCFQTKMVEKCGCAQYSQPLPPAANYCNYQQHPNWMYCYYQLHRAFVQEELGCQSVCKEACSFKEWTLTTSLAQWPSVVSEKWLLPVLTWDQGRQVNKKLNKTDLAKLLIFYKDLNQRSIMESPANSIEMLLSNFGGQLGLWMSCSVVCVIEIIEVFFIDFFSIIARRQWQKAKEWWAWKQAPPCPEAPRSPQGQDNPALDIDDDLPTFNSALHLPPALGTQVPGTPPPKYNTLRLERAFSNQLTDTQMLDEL
Description: Sodium Channel ENaC Ussing Chamber Test (short circuit current). The class given is cell-based. The settings on record: human primary bronchial epithelial cells at air-liquid interface; inhibition of short circuit current; compounds added to the apical side. The protocol: Sodium Channel ENaC Ussing Chamber Test
Human primary bronchial epithelial cells differentiated at air-liquid interface (ALI) on snapwell permeable supports (MatTek Corporation, MA, USA, cat no AIR-100-SNP) were maintained at ALI culture in a humidified incubator at 37° C. and 5% CO2. Basolateral medium (MatTek Corporation, MA, USA cat no AIR-100-MM-ASY) was changed every second day. Mucus or liquid formed on the apical side was gently aspirated every second day to maintain viability and performance of the cells.
The transepithelial voltage between the luminal/apical and basolateral membrane were measured in the ussing chamber consisted of vertical, in-house manufactured ussing chambers, DVC-1000 V/C clamps with preamplifiers (World Precision Instruments), electrode kits (EK1, World Precision Instruments), Power Lab with Chart5 software, water bath with external circulation and carbogen gas distribution and regulation system. Electrodes used in the set up were casted manually using 4% agarose in 0.9% sterile NaCl according to the manufacturer's recommendation.
The ussing chambers were assembled with an empty snapwell membrane (Costar 3407) and electrodes contained in Kreb's buffer (SIGMA-ALDRICH cat no K3753) for one hour at 37° C. in presence of 95% oxygen and 5% carbon dioxide. After this equilibration step the system was compensated for fluid resistance and input offset.
The equilibrated chambers were reassembled with a snapwell containing ALI cells and after 20 minutes stabilisation cumulative doses of the compounds were added to the apical side of the membrane. After the final dose 10 μM Benzamil was added to reach maximum.
All test compounds, including the reference compound, were diluted from 10 mM stocks in 100% DMSO and added to opaque 96-well plates (Greiner, Cat No. 651201). Dilution series of 12 doses were prepared in DMSO, starting with 3 μM followed by 10 times dilution steps.
Chart5 for Windows software was used to measure the value of the short circuit current after each compound addition. The data was transferred into Excel and analysed using IDBS XLfit® 5.2 (ID Business Solutions Ltd). The molar concentration of test or reference compound producing 50% inhibition (curve IC50) was derived by fitting data to a 4-parameter logistic function of the form: y=(A+((B−A)/(1+(((10^C)/x)^D))))
A The bottom plateau of the curve, i.e. the final minimum y value
B The top of the plateau of the curve i.e. the final maximum y value
C The log10 x value at a y value of 50%.

The IC50 is the midpoint of a concentration-inhibition curve. A low value points to greater potency in that assay.

Regarding `N=C(N)NC(=O)c1nc(Cl)c(N)nc1N` [amiloride], the mortality result in assay [1] is reported as “significantly reduced”. For the same compound, in assay [2], the ASL volume result was “increases” and the MCC rates result was “increases”. With `CCCCCCN(CCNC(=O)c1ccc(CNC[C@H](CNC(=O)c2nc(Cl)c(N)nc2N)Cc2ccccc2C)cc1)C[C@H](O)[C@@H](O)[C@H](O)CO` [Example 2, 3,5-diamino-6-chloro-N—((R)-3-((4-((2-(hexyl((2S,3R,4R)-2,3,4,5-tetrahydroxypentyl)amino)ethyl)carbamoyl)benzyl)amino)-2-(2-methylbenzyl)propyl)pyrazine-2-carboxamide], in assay [3], the IC50 was 2.51 nM. With `CCCCCCN(CCC(=O)N1CCC(CNC[C@H](CNC(=O)c2nc(Cl)c(N)nc2N)Cc2ccccc2C)CC1)C[C@H](O)[C@@H](O)[C@H](O)CO` [Example 5, 3,5-diamino-6-chloro-N—((R)-3-((1-(3-(hexyl((2S,3R,4R)-2,3,4,5-tetrahydroxypentyl)amino)propanoyl)piperidin-4-yl)methylamino)-2-(2-methylbenzyl)propyl)pyrazine-2-carboxamide], the IC50 in assay [3] was 1 nM. Still for that read-out and setting: then `CCCCCCN(CCNC(=O)Oc1ccc(CNC[C@H](CNC(=O)c2nc(Cl)c(N)nc2N)Cc2ccccc2C)cc1)C[C@H](O)[C@@H](O)[C@H](O)[C@H](O)CO` [Example 11, 4-(((R)-3-(3,5-diamino-6-chloropyrazine-2-carboxamido)-2-(2-methylbenzyl)propylamino)methyl)phenyl 2-(hexyl((2S,3R,4R,5R)-2,3,4,5,6-pentahydroxyhexyl)amino)ethylcarbamate], with 1.58 nM.

The values above are taken from US10336725B2, “Chemical compounds” (AstraZeneca AB, priority 2014, dated 2019).
